The molecules below were run against T1, KCNT1 (KNa1.1, Slack) (Homo sapiens, UniProt Q5JUK3) (assay: KCNT1-WT-Basal Patch Clamp Assay). Details: tetracycline inducible cell line (HEK-TREX); SyncroPatch 384PE automated patch clamp, perforated patch mode, room temperature, step from -80 mV to 0 mV.
T1 construct: expressed in transfected cells; host or cells: HEK-TREX (tetracycline-inducible cell line)
T1 sequence (Q5JUK3 1-1230): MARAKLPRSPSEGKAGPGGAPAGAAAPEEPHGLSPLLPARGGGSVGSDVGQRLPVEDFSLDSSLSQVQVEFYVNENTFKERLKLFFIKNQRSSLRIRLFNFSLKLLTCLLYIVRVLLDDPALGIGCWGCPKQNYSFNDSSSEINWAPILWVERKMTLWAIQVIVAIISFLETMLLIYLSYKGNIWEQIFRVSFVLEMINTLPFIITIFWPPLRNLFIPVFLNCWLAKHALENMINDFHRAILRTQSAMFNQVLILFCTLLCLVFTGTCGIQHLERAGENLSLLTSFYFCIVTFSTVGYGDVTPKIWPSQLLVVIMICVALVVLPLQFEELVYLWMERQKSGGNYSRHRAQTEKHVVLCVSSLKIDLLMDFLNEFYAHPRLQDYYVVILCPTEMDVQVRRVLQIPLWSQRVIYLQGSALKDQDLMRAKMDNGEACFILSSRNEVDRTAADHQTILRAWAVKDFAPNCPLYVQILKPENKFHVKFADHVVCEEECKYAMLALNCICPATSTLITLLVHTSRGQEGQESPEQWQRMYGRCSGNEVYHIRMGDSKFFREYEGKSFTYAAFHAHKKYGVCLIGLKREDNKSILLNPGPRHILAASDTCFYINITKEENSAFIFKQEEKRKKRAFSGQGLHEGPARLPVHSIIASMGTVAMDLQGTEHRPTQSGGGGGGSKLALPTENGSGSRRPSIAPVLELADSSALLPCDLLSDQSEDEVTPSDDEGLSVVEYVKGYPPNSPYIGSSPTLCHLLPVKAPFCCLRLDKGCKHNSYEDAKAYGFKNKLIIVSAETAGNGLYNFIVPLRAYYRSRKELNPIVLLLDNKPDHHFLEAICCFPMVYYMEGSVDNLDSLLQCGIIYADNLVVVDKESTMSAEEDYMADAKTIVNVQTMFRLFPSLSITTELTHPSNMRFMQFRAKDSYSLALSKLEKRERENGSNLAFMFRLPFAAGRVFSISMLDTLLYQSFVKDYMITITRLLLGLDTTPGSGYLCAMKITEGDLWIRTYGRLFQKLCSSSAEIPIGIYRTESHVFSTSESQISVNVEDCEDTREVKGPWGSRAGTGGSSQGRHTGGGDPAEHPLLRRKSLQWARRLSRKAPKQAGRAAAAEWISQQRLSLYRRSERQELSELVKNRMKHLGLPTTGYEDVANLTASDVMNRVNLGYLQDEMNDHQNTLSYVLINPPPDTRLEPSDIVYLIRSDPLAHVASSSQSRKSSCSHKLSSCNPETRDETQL
Format: cell-based
Description: KCNT1-WT-Basal—Patch Clamp Assay
Inhibition of KCNT1 (KNa1.1, Slack) was evaluated using a tetracycline inducible cell line (HEK-TREX). Currents were recorded using the SyncroPatch 384PE automated, patch clamp system. Pulse generation and data collection were performed with PatchController384 V1.3.0 and DataController384 V1.2.1 (Nanion Technologies). The access resistance and apparent membrane capacitance were estimated using built-in protocols. Current were recorded in perforated patch mode (10 μM escin) from a population of cells. The cells were lifted, triturated, and resuspended at 800,000 cells/ml. The cells were allowed to recover in the cell hotel prior to experimentation. Currents were recorded at room temperature. The external solution contained the following (in mM): NaCl 105, NMDG 40, KCl 4, MgCl2 1, CaCl2 5 and HEPES 10 (pH=7.4, Osmolarity ˜300 mOsm). The extracellular solution was used as the wash, reference and compound delivery solution. The internal solution contained the following (in mM): NaCl 70, KF 70, KCl 10, EGTA 5, HEPES 5 and Escin 0.01 (pH=7.2, Osmolarity ˜295 mOsm). Escin is made at a 5 mM stock in water, aliquoted, and stored at −20° C. The compound plate was created at 2× concentrated in the extracellular solution. The compound was diluted to 1:2 when added to the recording well. The amount of DMSO in the extracellular solution was held constant at the level used for the highest tested concentration. A holding potential of −80 mV with a 100 ms step to 0 mV was used. Mean current was measured during the step to 0 mV. […] The average mean current from 3 sweeps was calculated and the % inhibition of each compound was calculated. The % Inhibition as a function of the compound concentration was fit with a Hill equation to derive IC50, slope, min and max parameters. If KCNT1 inhibition was less than 50% at the highest tested concentration or if an IC50 could not be calculated, then a percent inhibition was reported in place of the IC50.
In this table, “A” indicates IC50 of less than or equal to 1 μM; “B” indicates inhibition of between 1 μM to 20 μM; and “C” indicates inhibition of greater than or equal to 20 μM.
`C[C@H](NC(=O)c1ccccc1Cl)c1nc(-c2ccnc(C3CC3)c2)no1` [Compound I-80, 2-chloro-N-[(1S)-1-[3-(2-cyclopropyl-4-pyridyl)-1,2,4-oxadiazol-5-yl]ethyl]benzamide] showed an IC50 of at most 1 µM. `C[C@H](NC(=O)[C@H]1CC[C@@H](C)CC1)c1nc(-c2ccnc(C(F)(F)F)c2)no1` [Compound I-36, cis-4-methyl-N—((S)-1-(3-(2-(trifluoromethyl)pyridin-4-yl)-1,2,4-oxadiazol-5-yl)ethyl)cyclohexane-1-carboxamide] gave an IC50 of at most 1 µM. Molecule `C[C@H](NC(=O)N1CCc2ccccc2C1)c1nc(-c2ccnc(C(F)(F)F)c2)no1` [II-11] has an IC50 of at most 1 µM. In the case of `C[C@H](NC(=O)C1(C#N)CC1)c1nc(-c2ccnc(C(F)(F)F)c2)no1` [Compound I-32, (S)-1-cyano-N-(1-(3-(2-(trifluoromethyl)pyridin-4-yl)-1,2,4-oxadiazol-5-yl)ethyl)cyclopropane-1-carboxamide], the IC50 is reported as at least 20 µM. `C[C@H](NC(=O)[C@H]1CC[C@H](C)CC1)c1nc(-c2ccnc(C3CC3)c2)no1` [Compound I-29, (S)—N-(1-(3-(2-cyclopropylpyridin-4-yl)-1,2,4-oxadiazol-5-yl)ethyl)-4-methylcyclohexane-1-carboxamide] showed an IC50 of at most 1 µM. Work on `C[C@H](NC(=O)C12CC(C)(C1)C2)c1nc(-c2ccnc(C(F)(F)F)c2)no1` [Compound I-72, 3-methyl-N-[(1S)-1-[3-[2-(trifluoromethyl)-4-pyridyl]-1,2,4-oxadiazol-5-yl]ethyl]bicyclo[1.1.1]pentane-1-carboxamide] yielded an IC50 of 1 to 20 µM. Molecule `C[C@H](NC(=O)C1CC(C)(C)C1)c1nc(-c2ccnc(C(F)(F)F)c2)no1` [Compound I-56, (S)-3,3-dimethyl-N-(1-(3-(2-(trifluoromethyl)pyridin-4-yl)-1,2,4-oxadiazol-5-yl)ethyl)cyclobutane-1-carboxamide] has an IC50 of at most 1 µM. `C[C@H](NC(=O)C1CCC(F)(F)CC1)c1nc(-c2ccnc(C(F)(F)F)c2)no1` [Compound I-3, (S)-4,4-difluoro-N-(1-(3-(2-(trifluoromethyl)pyridin-4-yl)-1,2,4-oxadiazol-5-yl)ethyl)cyclohexane-1-carboxamide] showed an IC50 of at most 1 µM. In the case of `C[C@H](NC(=O)c1cc2ccc(C(F)(F)F)cc2s1)c1nc(-c2ccnc(C(F)(F)F)c2)no1` [Compound I-25, (S)-6-(trifluoromethyl)-N-(1-(3-(2-(trifluoromethyl)pyridin-4-yl)-1,2,4-oxadiazol-5-yl)ethyl)benzo[b]thiophene-2-carboxamide], the IC50 is reported as at most 1 µM. `COc1ccccc1C(=O)N[C@@H](C)c1nc(-c2ccnc(C3CC3)c2)no1` [Compound I-75, N-[(1S)-1-[3-(2-cyclopropyl-4-pyridyl)-1,2,4-oxadiazol-5-yl]ethyl]-2-methoxy-benzamide] gave an IC50 of at most 1 µM. `C[C@H](NC(=O)[C@H]1CC[C@H](C)CC1)c1nc(-c2ccnc(C(F)(F)F)c2)no1` [Compound I-26, trans-4-methyl-N—((S)-1-(3-(2-(trifluoromethyl)pyridin-4-yl)-1,2,4-oxadiazol-5-yl)ethyl)cyclohexane-1-carboxamide] showed an IC50 of at most 1 µM. With `C[C@H](NC(=O)C1CCC(O)CC1)c1nc(-c2ccnc(C(F)(F)F)c2)no1` (single isomer, unassigned) [Compound I-77] the IC50 was at least 20 µM. With `C[C@H](NC(=O)C1CCOCC1)c1nc(-c2ccnc(C(F)(F)F)c2)no1` [Compound I-12, (S)—N-(1-(3-(2-(trifluoromethyl)pyridin-4-yl)-1,2,4-oxadiazol-5-yl)ethyl)tetrahydro-2H-pyran-4-carboxamide] the IC50 was at least 20 µM. In the case of `C[C@H](NC(=O)C1CC2CCC1CC2)c1nc(-c2ccnc(C(F)(F)F)c2)no1` (stereo partly drawn) [Compound I-60, N—((S)-1-(3-(2-(trifluoromethyl)pyridin-4-yl)-1,2,4-oxadiazol-5-yl)ethyl)bicyclo[2.2.2]octane-2-carboxamide], the IC50 is reported as at most 1 µM. `CC[C@H](NC(=O)Cc1ccccc1)c1nc(-c2ccnc(C(F)(F)F)c2)no1` [Compound I-15, (S)-2-phenyl-N-(1-(3-(2-(trifluoromethyl)pyridin-4-yl)-1,2,4-oxadiazol-5-yl)propyl)acetamide] gave an IC50 of at most 1 µM. `C[C@H](NC(=O)c1ccc(Cl)cc1)c1nc(-c2ccnc(C3CC3)c2)no1` [Compound I-62, (S)-4-chloro-N-(1-(3-(2-cyclopropylpyridin-4-yl)-1,2,4-oxadiazol-5-yl)ethyl)benzamide] gave an IC50 of at most 1 µM. Molecule `C[C@H](NC(=O)c1cccc(F)c1)c1nc(-c2ccnc(C3CC3)c2)no1` [Compound I-89, (S)—N-(1-(3-(2-cyclopropylpyridin-4-yl)-1,2,4-oxadiazol-5-yl)ethyl)-3-fluorobenzamide] has an IC50 of at most 1 µM. Work on `C[C@H](NC(=O)c1cccc(S(C)(=O)=O)c1)c1nc(-c2ccnc(C3CC3)c2)no1` [Compound I-92, (S)—N-(1-(3-(2-cyclopropylpyridin-4-yl)-1,2,4-oxadiazol-5-yl)ethyl)-3-(methylsulfonyl)benzamide] yielded an IC50 of at most 1 µM. With `C[C@H](NC(=O)C1CC2(CCC2)C1)c1nc(-c2ccnc(C3CC3)c2)no1` [Compound I-98, (S)—N-(1-(3-(2-cyclopropylpyridin-4-yl)-1,2,4-oxadiazol-5-yl)ethyl) spiro[3.3]heptane-2-carboxamide] the IC50 was at most 1 µM. `CC1CCCC1C(=O)N[C@@H](C)c1nc(-c2ccnc(C(F)(F)F)c2)no1` (stereo partly drawn) [Compound I-30, 2-methyl-N—((S)-1-(3-(2-(trifluoromethyl)pyridin-4-yl)-1,2,4-oxadiazol-5-yl)ethyl)cyclopentane-1-carboxamide] showed an IC50 of 1 to 20 µM. In the case of `CC(NC(=O)c1ccc2c(c1)OCCO2)c1nc(-c2cccc(F)c2)no1` (stereo not drawn) [Compound I-51, N-[1-[3-(3-fluorophenyl)-1,2,4-oxadiazol-5-yl]ethyl]-2,3-dihydro-1,4-benzodioxine-6-carboxamide], the IC50 is reported as 1 to 20 µM. Molecule `C[C@H](NC(=O)c1ccc(S(C)(=O)=O)s1)c1nc(-c2ccnc(C3CC3)c2)no1` [Compound I-70, (S)—N-(1-(3-(2-cyclopropylpyridin-4-yl)-1,2,4-oxadiazol-5-yl)ethyl)-5-(methylsulfonyl)thiophene-2-carboxamide] has an IC50 of at most 1 µM. With `Cc1ccccc1C(=O)N[C@@H](C)c1nc(-c2ccnc(C3CC3)c2)no1` [Compound I-83, N-[(1S)-1-[3-(2-cyclopropyl-4-pyridyl)-1,2,4-oxadiazol-5-yl]ethyl]-2-methyl-benzamide] the IC50 was at most 1 µM. Work on `C[C@H](NC(=O)c1ccc(Br)s1)c1nc(-c2ccnc(C(F)(F)F)c2)no1` [Compound I-18, (S)-5-bromo-N-(1-(3-(2-(trifluoromethyl)pyridin-4-yl)-1,2,4-oxadiazol-5-yl)ethyl)thiophene-2-carboxamide] yielded an IC50 of at most 1 µM.

From US12583849B2, “KCNT1 inhibitors and methods of use” (Praxis Precision Medicines, Inc., priority 2020, dated 2026)
